Laboratory results reported in article PMC8811433 (The Journal of International Medical Research, 2022).

Molecular target: Lysine-specific demethylase 1 (LSD1) (Homo sapiens, UniProt O60341)
Test: in vitro LSD1 activity assay
Assay type: biochemical
Conditions: read-out: % inhibition at 1000 nM

- inhibition at 1 µM: 78%
SMILES: C=C1C(=O)O[C@H]2[C@H]1[C@H](OC(=O)/C(C)=C/CO)CC(=C)[C@@H]1C=C[C@@](C)(O)[C@H]21 [eupalinilide B]
